pIC50: −log10 of the molar value. Where two headings read alike, the source gives them in different places.
What was measured:
[1] = system: HCT116 cells xenograft; assay: HCT116 subcutaneous tumour xenograft mouse model; assay type: in vivo; settings: HCT116 xenografted mice, 25 mg/kg intraperitoneal once every 2 days, after 21 days
Experimental: (§1) Female J:Nu outbred nude mice (5-6 weeks old) were injected subcutaneously at the right flank with 1×10^6 HCT116 or DLD-1 cells in 1:1 Hank's Balanced salt solution/Matrigel. Mice were assigned into treatment groups (4-5 mice per group) when tumour volumes reached 50-100 mm^3. Vehicle control (Ethanol:Kolliphor EL:saline=1:1:8), NYH001 (25 mg/kg), NYH002 (25 mg/kg) or 5-flurouracil (5-FU, 25 mg/kg) was given once every 2 days by intraperitoneal injection for 3 weeks. Bodyweight of the mice was taken every day and tumour size was measured twice a week. Tumour sizes were calculated using the formula, volume=(length×width^2)/2 mm^3. At the end of the 3 weeks treatment period, the mice were sacrificed and tumours excised. All procedures were approved by the NTU Institutional Animal Care and Use Committee (IACUC) and conducted in accordance with the IACUC protocol A20001.

[2] = system: DLD-1 cells xenograft; assay: DLD-1 subcutaneous tumour xenograft mouse model; assay type: in vivo; settings: DLD-1 xenografted mice, 25 mg/kg intraperitoneal once every 2 days, after 21 days
Experimental: as §1

[3] = system: PC3; assay: MTT cytotoxicity assay, PC3; assay type: cell-based; settings: Homo sapiens, PC-3, PC3, prostate adenocarcinoma, 48 hours, absolute IC50
Experimental: (§2) To test the cytotoxicity effect of the compounds NYH001-NYH005 in various cancer cell types, different cancer cells were treated with the compounds for 48 hours and analyzed using MTT assay. […] Absolute IC50 values of the compounds were calculated (Table 1, FIG. 1A-C).

[4] = system: Huh7; assay: MTT cytotoxicity assay, Huh7; assay type: cell-based; settings: Homo sapiens, Huh-7, Huh7, liver carcinoma, 48 hours, absolute IC50
Experimental: as §2

[5] = system: DLD-1; assay: MTT cytotoxicity assay, DLD-1; assay type: cell-based; settings: Homo sapiens
Experimental: as §2

[6] = system: Du145; assay: MTT cytotoxicity assay, Du145; assay type: cell-based; settings: Homo sapiens, DU-145, Du145, prostate carcinoma, 48 hours, absolute IC50
Experimental: as §2

[7] = system: A549; assay: MTT cytotoxicity assay, A549; assay type: cell-based; settings: Homo sapiens, A549, lung carcinoma, 48 hours, absolute IC50
Experimental: as §2

[8] = system: Mcf-7; assay: MTT cytotoxicity assay, Mcf-7; assay type: cell-based; settings: Homo sapiens, MCF7, Mcf-7, breast adenocarcinoma, 48 hours, absolute IC50
Experimental: as §2

[9] = system: HCT116; assay: MTT cytotoxicity assay, HCT116; assay type: cell-based; settings: Homo sapiens, HCT-116, HCT116, colon carcinoma, 48 hours, absolute IC50
Experimental: as §2

[10] = system: AGS; assay: MTT cytotoxicity assay, AGS; assay type: cell-based; settings: Homo sapiens, stomach adenocarcinoma, 48 hours, absolute IC50
Experimental: as §2

[11] = system: Hep3B; assay: MTT cytotoxicity assay, Hep3B; assay type: cell-based; settings: Homo sapiens, liver carcinoma, 48 hours, absolute IC50
Experimental: as §2

[12] = system: human myeloid leukemia cell line K562; settings: cited from earlier work; for pIC50: read-out: IC50
[13] = system: H1299; assay: MTT cytotoxicity assay, H1299; assay type: cell-based; settings: Homo sapiens, NCI-H1299, H1299, lung carcinoma, 48 hours, absolute IC50
Experimental: as §2

[14] = system: Hs746T; assay: MTT cytotoxicity assay, Hs746T; assay type: cell-based; settings: Homo sapiens, stomach carcinoma, 48 hours, absolute IC50
Experimental: as §2

[15] = system: human hepatoma cell line (SMMC-7221); settings: cited from earlier work; for pIC50: read-out: IC50
[16] = system: MDA-MB-231; assay: MTT cytotoxicity assay, MDA-MB-231; assay type: cell-based; settings: Homo sapiens, MDA-MB-231, breast adenocarcinoma, 48 hours, absolute IC50
Experimental: as §2

[17] = system: cancer cells; assay: Colony formation (clonogenic) assay; assay type: cell-based; settings: some cell lines, concentration as low as 1 μM
Experimental: To further confirm the growth inhibitory effect of compounds on cancer cells, colony formation assays were performed. Cells were treated with various doses of the compounds and allowed to grow for 7-10 days till they form colonies. Colonies were fixed and stained with 0.5% w/v crystal violet, containing methanol. The cell culture plates were rinsed with distilled water before scanning for quantification. Colony counts were quantified using Image J software.

[18] = system: human KB oral carcinoma cells; settings: cytotoxic activity / proliferation; cited from earlier work
[19] = DLD-1, colon adenocarcinoma, 48 hours, MTT, absolute IC50, read-out: IC50

**Q.** Which “reduction of average tumor volume compared to vehicle control” value (“reduction of average tumor volume” for short) [1] does the source give for O=c1[nH]cc(F)c(=O)[nH]1 [5-FU, 5-flurouracil, reference compound] here?
**A.** 10.4%

**Q.** What about the “reduction of average tumor weight compared to vehicle control” value (“reduction of average tumor weight” for short) [1] of the same molecule?
**A.** 21.9%

**Q.** And the “reduction of average tumor volume” value [2]?
**A.** 32.3%

**Q.** And the “reduction of average tumor weight” value [2]?
**A.** 38.7%

**Q.** What does the source list for C=C(C)C(=O)O[C@H]1C/C(C)=C/C(=O)/C=C(/C)[C@@H](O)[C@H]2OC(=O)C(=C)C12 (some centres unmarked) [NYH001, Molephantin]?
**A.** pIC50 [3]: 5.61; reduction of average tumor volume compared to vehicle control [1]: 35.4%; reduction of average tumor weight compared to vehicle control [1]: 41.7%; pIC50 [4]: 5.54; pIC50 [5, 19]: 5.82; pIC50 [6]: 5.38; pIC50 [7]: 4.82; pIC50 [8]: 5.32; pIC50 [9]: 5.58; pIC50 [10]: 5.81; pIC50 [11]: 5.50; pIC50 [12]: 5.10; pIC50 [13]: 5.53; pIC50 [14]: 5.72; pIC50 [15]: 5.24; pIC50 [16]: 5.52

**Q.** With C=C(C)C(=O)O[C@H]1C/C(C)=C/C(=O)/C=C(/C)[C@@H](OC(=O)c2ccccc2)[C@H]2OC(=O)C(=C)C12 (some centres unmarked) [NYH002] as the molecule, how does the pIC50 [3] read?
**A.** 5.89

**Q.** What about the “reduction of average tumor volume” value [1] of the same molecule?
**A.** 46.5%

**Q.** And the “reduction of average tumor weight” value [1]?
**A.** 49.3%

**Q.** What about the pIC50 [4] of the same molecule?
**A.** 5.94

**Q.** What about the pIC50 [5, 19] of the same molecule?
**A.** 6.45

**Q.** What about the pIC50 [6] of the same molecule?
**A.** 5.63

**Q.** And the colonies formed [17]?
**A.** did not result in any colonies formed

**Q.** And the pIC50 [7]?
**A.** 5.29

**Q.** What about the pIC50 [8] of the same molecule?
**A.** 5.70

**Q.** And the pIC50 [9]?
**A.** 6.06

**Q.** And the pIC50 [10]?
**A.** 6.38

**Q.** What about the pIC50 [11] of the same molecule?
**A.** 6.04

**Q.** What about the pIC50 [13] of the same molecule?
**A.** 5.87

**Q.** And the “reduction of average tumor volume” value [2]?
**A.** 51.9%

**Q.** What about the “reduction of average tumor weight” value [2] of the same molecule?
**A.** 57.3%

**Q.** What about the pIC50 [14] of the same molecule?
**A.** 6.33

**Q.** What about the pIC50 [16] of the same molecule?
**A.** 6.04

**Q.** With C=C(C)C(=O)O[C@H]1C/C(C)=C/C(=O)/C=C(/C)[C@@H](OC(=O)c2ccc(C(F)(F)F)cc2)[C@H]2OC(=O)C(=C)C12 (some centres unmarked) [NYH004] as the molecule, how does the pIC50 [3] read?
**A.** 5.70

**Q.** What about the pIC50 [4] of the same molecule?
**A.** 5.80

**Q.** And the pIC50 [5, 19]?
**A.** 6.03

**Q.** What about the pIC50 [6] of the same molecule?
**A.** 5.52

**Q.** And the pIC50 [7]?
**A.** 5.28

**Q.** What about the pIC50 [8] of the same molecule?
**A.** 5.69

**Q.** What about the pIC50 [9] of the same molecule?
**A.** 5.88

**Q.** What about the pIC50 [10] of the same molecule?
**A.** 5.99

**Q.** What about the pIC50 [11] of the same molecule?
**A.** 5.73

**Q.** And the pIC50 [13]?
**A.** 5.78

**Q.** What about the pIC50 [14] of the same molecule?
**A.** 5.92

**Q.** And the pIC50 [16]?
**A.** 5.94

**Q.** With C=C(C)C(=O)O[C@H]1C/C(C)=C/C(=O)/C=C(/C)[C@@H](OC(=O)c2cc(C(F)(F)F)cc(C(F)(F)F)c2)[C@H]2OC(=O)C(=C)C12 (some centres unmarked) [NYH005] as the molecule, how does the pIC50 [3] read?
**A.** 5.61

**Q.** And the pIC50 [4]?
**A.** 5.68

**Q.** What about the pIC50 [5, 19] of the same molecule?
**A.** 6.21

**Q.** What about the pIC50 [6] of the same molecule?
**A.** 5.44

**Q.** What about the pIC50 [7] of the same molecule?
**A.** 5.23

**Q.** What about the pIC50 [8] of the same molecule?
**A.** 5.62

**Q.** And the pIC50 [9]?
**A.** 5.80

**Q.** What about the pIC50 [10] of the same molecule?
**A.** 5.95

**Q.** And the pIC50 [11]?
**A.** 5.70

**Q.** What about the pIC50 [13] of the same molecule?
**A.** 5.81

**Q.** And the pIC50 [14]?
**A.** 5.71

**Q.** And the pIC50 [16]?
**A.** 5.83

**Q.** With C=C(C)C(=O)O[C@H]1C/C(C)=C/C(=O)/C=C(/C)[C@@H](OC(=O)c2ccc([N+](=O)[O-])cc2)[C@H]2OC(=O)C(=C)C12 (some centres unmarked) [NYH007] as the molecule, how does the pIC50 ([5]; DLD-1 cells, read-out: IC50 (cytotoxic effect)) read?
**A.** 6.46

**Q.** For C=C(C)C(=O)O[C@H]1C/C(C)=C\[C@@]2(OC)C=C(C)[C@@H](O2)[C@H]2OC(=O)[C@@H](COC)[C@@H]21 [Tomenphantopin-C], which IC50 [12] is on record?
**A.** inactive

**Q.** And the IC50 [15]?
**A.** inactive

**Q.** Which ED50 [18] does the source give for Tomenphantine-A here?
**A.** 3.0 µg/mL

**Q.** Which ED50 [18] does the source give for Tomenphantine-B here?
**A.** 2.7 µg/mL

**Q.** Which ED50 [18] does the source give for Tomenphantopin-A here?
**A.** 2.5 µg/mL

**Q.** With Tomenphantopin-B as the molecule, how does the ED50 [18] read?
**A.** 5.0 µg/mL

**Q.** With Tomenphantopin-D as the molecule, how does the pIC50 [12] read?
**A.** 4.35

**Q.** What about the pIC50 [15] of the same molecule?
**A.** 4.95

**Q.** Which results are given for Tomenphantopin-E?
**A.** IC50 [12]: inactive; IC50 [15]: inactive

**Q.** For Tomenphantopin-F, which IC50 [12] is on record?
**A.** inactive

**Q.** What about the IC50 [15] of the same molecule?
**A.** inactive

Reference: patent US20250304544A1, “MOLEPHANTIN DERIVATIVES USEFUL IN THE TREATMENT OF CANCER” (Nanyang Technological University, priority 2021, published 2025)
